The test system of experiment [1] is Dopamine D2 receptor antagonist (Haloperidol) induced catalepsy. Briefly: Haloperidol induced catalepsy (Bar method). Type of experiment: in vivo, rat. The settings on record: for Catalepsy Duration: TOFA 0.4 mg/kg S.C. pretreatment.
For experiment [2], the system named is MMTV-luciferase reporter gene. Briefly: Luciferase expression in cells transfected only with the MMTV-luciferase reporter gene. Type of experiment: cell-based. The settings on record: no receptor transfected.
Description: Transient transfection of COS and CV1 cells was performed as described (Schmidt 1992). Cells were plated (1.5×10^5 in 1 mL) into 12 well dishes in phenol red-free medium supplemented with activated charcoal treated fetal calf serum. The next day 0.12 mL of DNA 10 μg/ml (5 μg receptor DNA and 5 μg reporter plasmid), as a calcium phosphate precipitate, was added to the cells. Ligands were added to the cells 30 minutes after transfection. The next day (18 hours), the cells were washed and fresh ligands added. Twenty-four hours later, cell extracts were prepared and assayed for luciferase enzyme activity using the luciferase assay system (Promega Madison, Wis.). Each transfection was performed in triplicate and the luciferase activity of each sample measured in duplicate using the AutoClinilumat (Berthold Nashua, N.H.).
Experiment [3] has as its system Muscarinic receptor agonist (Pilocarpine) induced catalepsy. Briefly: Pilocarpine induced catalepsy (Bar method). It is filed as in vivo, rat. The settings on record: TOFA 0.4 mg/kg S.C. pretreatment. As for the experimental part:
Catalepsy was determined by a modification of the Bar method (Undie and Friedman, 1988). A steel bar, 1.1 cm in diameter and 50 cm long, was suspended at a height of 10 cm above the working surface. Three sides of the bench around the bar were walled off with brown cardboard, and the linings on the bench surface were selected to be of the same color with the cardboard walls. The animal's hind limbs were freely placed on the bench, the fail laid out to the back, and the forelimbs placed over the bar. The length of time a rat stayed up on the bar was noted up to a preset cut-off point of 120 s. The time was counted off upon observing any of the following actions: (1) the animal came off, placing its two forepaws on the bench, (2) the animal climbed onto or over the bar with both hind limbs, (3) the animal initiated locomotion along or around the bar. Subsequently, time readings were translated into scores by awarding a score of 1 for each successfully completed 5 s on the bar. For each observation time, catalepsy scores were averaged for all the animals in a group to give the Mean Score of the group at that observation time. Further, the scores for each animal at all the observation times were added to give the total score for that animal. The mean of this last group of numbers was called the Mean Total Score of the group.
Catalepsy scores were analyzed by computer in accordance with the statistical procedures outlined by Winer, B. J.: Statistical principles in experimental design. McGraw-Hill, New York, pp. 10-428, 1971. Generally, for a given set of comparisons, observations were subjected to an appropriate analysis of variance followed by two-tailed Dunnett or Student's t-tests to detect differences between treatment groups.
Rats were pretreated with 0.4 mg/kg TOFA or with carrier (S.C.). Twenty-four hours later, the rats were challenged with 16 mg/kg Pilocarpine, an agonist of the muscarinic cholinergic receptor, and the duration of catalepsy was monitored as described in Example 10.

Another experiment has as its system PC12 cells. Description: Neurite differentiation of PC12 cells. Type of experiment: cell-based. The settings on record: TOFA alone, without NGF.
For the next experiment, the target named is T1, GR/NUC chimeric receptor (Homo sapiens, UniProt Q03181).
T1 construct: transfected cells, MMTV-luciferase
T1 sequence (Q03181 1-441): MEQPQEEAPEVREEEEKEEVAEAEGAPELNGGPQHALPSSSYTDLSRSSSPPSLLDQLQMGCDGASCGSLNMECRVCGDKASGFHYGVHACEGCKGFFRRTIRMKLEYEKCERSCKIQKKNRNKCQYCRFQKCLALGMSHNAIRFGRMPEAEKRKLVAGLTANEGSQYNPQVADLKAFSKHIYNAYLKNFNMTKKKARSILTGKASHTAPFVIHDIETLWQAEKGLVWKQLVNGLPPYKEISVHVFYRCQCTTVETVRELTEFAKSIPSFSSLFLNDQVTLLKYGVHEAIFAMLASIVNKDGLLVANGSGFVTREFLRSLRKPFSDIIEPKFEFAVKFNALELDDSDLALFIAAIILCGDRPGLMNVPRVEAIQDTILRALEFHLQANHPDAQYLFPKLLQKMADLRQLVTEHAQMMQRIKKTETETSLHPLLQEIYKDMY
T1 sequence (P06537 1-792 partner): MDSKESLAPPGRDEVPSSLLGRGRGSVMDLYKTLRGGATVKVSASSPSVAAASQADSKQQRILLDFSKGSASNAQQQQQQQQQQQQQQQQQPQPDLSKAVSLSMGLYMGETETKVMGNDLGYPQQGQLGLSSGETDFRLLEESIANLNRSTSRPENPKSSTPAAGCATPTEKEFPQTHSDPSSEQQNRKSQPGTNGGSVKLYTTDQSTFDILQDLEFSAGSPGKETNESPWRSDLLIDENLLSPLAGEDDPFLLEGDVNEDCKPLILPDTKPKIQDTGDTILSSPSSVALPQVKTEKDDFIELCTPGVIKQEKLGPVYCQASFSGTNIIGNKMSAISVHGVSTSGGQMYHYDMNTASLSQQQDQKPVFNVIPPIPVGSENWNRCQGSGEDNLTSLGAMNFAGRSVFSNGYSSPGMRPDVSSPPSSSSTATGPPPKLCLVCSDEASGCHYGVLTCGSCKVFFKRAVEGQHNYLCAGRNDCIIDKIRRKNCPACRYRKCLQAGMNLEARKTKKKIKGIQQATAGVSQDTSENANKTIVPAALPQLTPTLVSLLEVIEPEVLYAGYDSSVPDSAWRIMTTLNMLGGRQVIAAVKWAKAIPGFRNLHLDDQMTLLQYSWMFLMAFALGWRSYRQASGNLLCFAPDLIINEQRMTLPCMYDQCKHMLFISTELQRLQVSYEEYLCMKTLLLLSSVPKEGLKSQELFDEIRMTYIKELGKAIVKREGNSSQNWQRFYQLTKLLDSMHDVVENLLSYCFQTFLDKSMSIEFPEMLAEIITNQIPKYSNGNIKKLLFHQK
Description: Ligand dependent transcription assay, GR/NUC chimeric receptor with MMTV-luciferase reporter. It is filed as cell-based. As for the experimental part: Similar hybrid receptors GR/NER, GR/NUC and GR/PPAR, in identical expression plasmid backgrounds were prepared essentially as described for the construction of the GR/mPPAR and GR/NUC chimeric receptors in Schmidt et al., "Identification of a new member of the steroid hormone receptor superfamily that is activated by a peroxisome proliferator and fatty acids," Mol. Endocrinol., 6(10):1634-41, 1992, and in Boie et al., "Enantioselective activation of the peroxisome proliferator-activated receptor", J. Biol. Chem. 268(8):5530-4, 1993.
Briefly, the amino terminal portion of the mouse glucocorticoid receptor (mGR), that includes the DNA binding domain was fused to the putative ligand binding domains of the nuclear receptor NER, hNUC-I (Schmidt et al., 1992), mPPAR (Issenmann and Green, 1990) to form the respective chimeric receptors GR/NER, GR/NUC and GR/PPAR. The GR/NER chimeric receptor was constructed as described for the GR/NUC and GR/PPAR hybrid receptors (Schmidt et al., 1992; Boie et al). The cDNA sequences coding for amino acids Arg^155 and Glu^156 of the NER receptor were converted to the Xho I restriction site, that was later used for the ligation to the GR cDNA sequences that coded for the DNA binding domain. Thus, converting amino acid residues Arg^155 and Glu^156 of NER receptor to amino acid residues Ser^155 and His^156.

Setting [4] is: read-out: Fold of stimulation GR/NUC.

“Also recorded” adds a separate entry of the source.

On to `CCCCCCCCCCCCCCOc1ccc(C(=O)O)o1` [TOFA, 5-(tetradecyloxy)-2-furan carboxylic acid], for which the “Catalepsy Duration” value in experiment [1] (24 h later 0.1 mg/kg Haloperidol) came out at 28.9 ± 4.5 s; in experiment [1] (no challenge), 0 s; in experiment [3] (24 h later 16 mg/kg Pilocarpine) it was 84.1 ± 9.6 s; in experiment [3] (no challenge), 0 s. In experiment [1] (TOFA 0.4 mg/kg S.C., 24 h before 0.1 mg/kg Haloperidol), the “Effect of TOFA pretreatment on Haloperidol-induced catalepsy” value is “did not significantly affect; also recorded: unaffected”. The “Expression of luciferase, MMTV-luciferase reporter gene only” value in experiment [2] is reported as “did not stimulate the expression of luciferase”. Also, the “Neurite outgrowth” value in the experiment on PC12 cells is “did not induce neurite outgrowth”. In addition, the “Expression mediated by GR/NUC” value at GR/NUC chimeric receptor is “stimulated expression”. Moreover, the fold induction at 2 µM on GR/NUC chimeric receptor (setting [4]) stood at 1.95 ± 0.14. Further, the fold induction at 10 µM at GR/NUC chimeric receptor (setting [4]) was found to be 2.85 ± 0.2. The fold induction at 50 µM at GR/NUC chimeric receptor (setting [4]) was determined as 3.19 ± 0.2.

The values are drawn from US5607967A, “Treatment of alzheimer's disease with 5-(tetradecyloxy)-2-furan carboxylic acid” (Merck & Co., Inc., priority 1994, dated 1997).
